In patent US10774132B2, “Ultralong complementarity determining regions and uses thereof” (THE SCRIPPS RESEARCH INSTITUTE, priority 2012, dated 2020):

Assays:
GLP-1 receptor (GLP-1R) = target: T1, GLP-1 receptor (GLP-1R) (Homo sapiens, UniProt P43220); assay: GLP-1R activation, cAMP responsive luciferase reporter in HEK293 cells; type: cell-based; conditions: HEK293 cells expressing GLP-1R, 24 h
T1 construct: expressed in transfected cells; host or cells: HEK293 (with cAMP responsive luciferase reporter gene)
T1 sequence (P43220 24-463, species assumed): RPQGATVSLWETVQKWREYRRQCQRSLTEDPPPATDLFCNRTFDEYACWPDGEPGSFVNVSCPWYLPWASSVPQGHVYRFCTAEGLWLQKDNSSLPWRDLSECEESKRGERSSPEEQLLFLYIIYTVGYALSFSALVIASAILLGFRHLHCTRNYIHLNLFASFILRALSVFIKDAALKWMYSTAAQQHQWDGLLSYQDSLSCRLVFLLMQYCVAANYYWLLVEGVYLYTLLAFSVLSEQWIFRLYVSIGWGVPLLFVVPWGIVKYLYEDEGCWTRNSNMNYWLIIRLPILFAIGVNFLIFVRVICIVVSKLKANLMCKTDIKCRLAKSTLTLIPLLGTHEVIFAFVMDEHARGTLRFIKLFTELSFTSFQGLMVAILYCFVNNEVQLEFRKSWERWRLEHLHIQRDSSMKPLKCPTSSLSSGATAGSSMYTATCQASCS
Method: HEK293 cells expressing surface GLP-1R and cAMP responsive luciferase reporter gene were seeded in 384 well plates at a density of 5000 cells per well. […] Subsequently, luciferase assay was performed using One-Glo luciferase reagent according manufacture's instruction (Promega).
HEK293 cells expressing surface GLP-1R and cAMP responsive luciferase reporter gene were seeded in 384 well plates at a density of 5000 cells per well. After 24 h incubation at 37° C. with 5% CO2, cells were treated with various concentrations of peptides and BLV1H12-GLP-1 clip fusion proteins and incubated for another 24 h. Subsequently, luciferase assay was performed using One-Glo luciferase reagent according manufacture's instruction (Promega).

Mouse NFS-60 cells = assay: Proliferation assay on mouse NFS-60 cells (AlamarBlue); type: cell-based; conditions: 72 hours
Method: Mouse NFS-60 cells were obtained from American Type Culture Collection (ATCC), VA, and cultured in RPMI-1640 medium supplemented with 10% fetal bovine serum (FBS), 0.05 mM 2-mercapoethanol and 62 ng/ml human macrophage colony stimulating factor (M-CSF). For proliferation assay, mouse NFS-60 cells were washed three times with RPMI-1640 medium and resuspended in RPMI-1640 medium with 10% FBS and 0.05 mM 2-mercapoethanol at a density of 1.5×10^5 cells/ml. In 96-well plates, 100 μl of cell suspension was added into each well, followed by the addition of varied concentrations of bGCSF, BLV1H12 antibody, and the immunoglobulin constructs described herein, Equal volume of PBS buffer was added into the control wells. The plates were incubated at 37° C. in a 5% CO2 incubator for 72 hours. Cells were then treated with AlamarBlue (Invitrogen) ( 1/10 volume of cell suspension) for 4 hours at 37° C. Fluorescence at 595 nm for each well was read to indicate the cell viability.

Human mPB CD34+ cells = assay: Proliferative activity on human granulocyte progenitors (flow cytometry); type: cell-based; conditions: 7 days, flow cytometry
Method: Human mPB CD34^+ cells were purchased from AllCells. Cells were resuspended in HSC expansion medium (StemSpan SFEM, StemCell Technologies) supplemented with 1× antibiotics and the following recombinant human cytokines: thrombopoietin, IL6, Flt3 ligand, and stem cell factor (100 ng/mL, R & D Systems), then plated in 96-well plates (1000 cells per well), with varied concentrations of BLV1H12-bGCSF fusion antibodies. Cells were cultured for 7 days at 37° C. in a 5% CO2 incubator, then analyzed by flow cytometry to measure cell number and expression of CD45ra and CD41. Cells were stained in staining medium (HBSS supplemented with 2% FBS and 2 mM EDTA) at 4° C. for 1 h with PECy7 anti-CD45ra and eFluor 450 anti-CD41 (eBiosciences), then washed with staining medium and analyzed. Multicolor analysis for cell phenotyping was performed on a LSR II flow cytometer (Becton Dickinson). FIGS. 10A-10E and Tables 9-10 show the human granulocyte progenitor cell proliferative activities of the Ab-GCSF fusion antibodies.

[1] = Pharmacokinetics in mice (ELISA of blood samples); type: in vivo; conditions: 70 μg injected, BALB/c mice
Method: For PK study in mice, 70 μg of the immunoglobulin constructs described herein were injected into 3 BALB/c mice per group. Blood samples were drawn from time 0 to 14 days with extended intervals and analyzed by ELISA using anti-human IgG Fc antibody with horseradish peroxidase (HRP) labeled (KPL) and anti-6×His antibody (“6×His” disclosed as SEQ ID NO: 511) with HRP labeled (Clontech). Data were normalized by taking maximal concentration at the first time point (30 min).

mice neutrophils = assay: Neutrophil counts in mice, 10th day after injection; type: in vivo; conditions: blood stained and counted at the 10th day post-injection
Method: On the 10th day after injection of BLV1H12-bGCSF fusion antibodies into mice for PK study, blood samples were drawn from the mice and stained using the Diff Quick Staining Kit (Thermo Fisher Scientific, IL). Neutrophils and white blood cells were counted under microscope and the percentages of neutrophils were analyzed. FIGS. 12A-12B and Table 12 show proliferative activities of BLV1H12-bGCSF fusion antibodies on mice neutrophils that are blood stained and counted at the 10th day post-injection.

## Ab-Ex4: Exendin-4 with Factor Xa site and GGGGS linkers grafted into CDR3H of BLV1H12
GLP-1 receptor (GLP-1R); 1.26953 nM
  RLU (cAMP responsive luciferase reporter): 6120 RLU
GLP-1 receptor (GLP-1R); 2.53906 nM
  RLU (cAMP responsive luciferase reporter): 6360 RLU
GLP-1 receptor (GLP-1R); 5.07813 nM
  RLU (cAMP responsive luciferase reporter): 8500 RLU
GLP-1 receptor (GLP-1R); 10.15625 nM
  RLU (cAMP responsive luciferase reporter): 10420 RLU
GLP-1 receptor (GLP-1R); 20.3125 nM
  RLU (cAMP responsive luciferase reporter): 19340 RLU
GLP-1 receptor (GLP-1R); 40.625 nM
  RLU (cAMP responsive luciferase reporter): 27960 RLU
GLP-1 receptor (GLP-1R); 81.25 nM
  RLU (cAMP responsive luciferase reporter): 54800 RLU
GLP-1 receptor (GLP-1R); 162.5 nM
  RLU (cAMP responsive luciferase reporter): 90660 RLU
GLP-1 receptor (GLP-1R); 325 nM
  RLU (cAMP responsive luciferase reporter): 117900 RLU
GLP-1 receptor (GLP-1R); 650 nM
  RLU (cAMP responsive luciferase reporter): 134760 RLU
GLP-1 receptor (GLP-1R); 1300 nM
  RLU (cAMP responsive luciferase reporter): 159660 RLU

## Ab-bGCSF L0: bovine G-CSF replacing the knob domain of BLV1H12 CDR3H, no linker (n=0), SEQ ID NO: 4
Mouse NFS-60 cells; 0.09876 ng/mL
  F.I. (fluorescence at 595 nm, AlamarBlue, cell viability): 1328
Mouse NFS-60 cells; 0.29627 ng/mL
  F.I. (fluorescence at 595 nm, AlamarBlue, cell viability): 1436
Mouse NFS-60 cells; 0.88881 ng/mL
  F.I. (fluorescence at 595 nm, AlamarBlue, cell viability): 1734.765
Mouse NFS-60 cells; 2.66642 ng/mL
  F.I. (fluorescence at 595 nm, AlamarBlue, cell viability): 2189
Mouse NFS-60 cells; 7.99927 ng/mL
  F.I. (fluorescence at 595 nm, AlamarBlue, cell viability): 2680
Mouse NFS-60 cells; 23.9978 ng/mL
  F.I. (fluorescence at 595 nm, AlamarBlue, cell viability): 2899
Mouse NFS-60 cells; 71.9934 ng/mL
  F.I. (fluorescence at 595 nm, AlamarBlue, cell viability): 2921
Mouse NFS-60 cells; 215.9802 ng/mL
  F.I. (fluorescence at 595 nm, AlamarBlue, cell viability): 3416
Human mPB CD34+ cells; 0.14225 ng/mL
  Number of CD45RA-CD41-: 2601
Human mPB CD34+ cells; 0.42676 ng/mL
  Number of CD45RA-CD41-: 2253
Human mPB CD34+ cells; 3.84088 ng/mL
  Number of CD45RA-CD41-: 4399
Human mPB CD34+ cells; 11.52263 ng/mL
  Number of CD45RA-CD41-: 7262
Human mPB CD34+ cells; 34.5679 ng/mL
  Number of CD45RA-CD41-: 9902
Human mPB CD34+ cells; 103.7037 ng/mL
  Number of CD45RA-CD41-: 11500
Human mPB CD34+ cells; 311.11111 ng/mL
  Number of CD45RA-CD41-: 11500
Human mPB CD34+ cells; 933.33333 ng/mL
  Number of CD45RA-CD41-: 11900
Human mPB CD34+ cells; 2800 ng/mL
  Number of CD45RA-CD41-: 12100
[1]; day 0.021
  Percentage (blood level normalized to first time point, 30 min): 100.00%
[1]; day 0.042
  Percentage (blood level normalized to first time point, 30 min): 91.12%
[1]; day 0.083
  Percentage (blood level normalized to first time point, 30 min): 91.24%
[1]; day 0.125
  Percentage (blood level normalized to first time point, 30 min): 91.56%
[1]; day 0.250
  Percentage (blood level normalized to first time point, 30 min): 61.22%
[1]; day 1.000
  Percentage (blood level normalized to first time point, 30 min): 44.22%
[1]; day 2.000
  Percentage (blood level normalized to first time point, 30 min): 36.36%
[1]; day 3.000
  Percentage (blood level normalized to first time point, 30 min): 27.38%
[1]; day 8.000
  Percentage (blood level normalized to first time point, 30 min): 11.53%
[1]; day 10.000
  Percentage (blood level normalized to first time point, 30 min): 12.44%
[1]; day 14.000
  Percentage (blood level normalized to first time point, 30 min): 14.35%
Mice neutrophils
  Percentage of Neutrophil: 25.05

## Ab-bGCSF L1: bovine G-CSF replacing the knob domain of BLV1H12 CDR3H with GGGGS linkers on both ends (n=1), SEQ ID NO: 5
Mouse NFS-60 cells; 0.09808 ng/mL
  F.I. (fluorescence at 595 nm, AlamarBlue, cell viability): 1412.387
Mouse NFS-60 cells; 0.29424 ng/mL
  F.I. (fluorescence at 595 nm, AlamarBlue, cell viability): 1654.776
Mouse NFS-60 cells; 0.88272 ng/mL
  F.I. (fluorescence at 595 nm, AlamarBlue, cell viability): 2082.718
Mouse NFS-60 cells; 2.64816 ng/mL
  F.I. (fluorescence at 595 nm, AlamarBlue, cell viability): 2550.674
Mouse NFS-60 cells; 7.94449 ng/mL
  F.I. (fluorescence at 595 nm, AlamarBlue, cell viability): 2997.807
Mouse NFS-60 cells; 23.83346 ng/mL
  F.I. (fluorescence at 595 nm, AlamarBlue, cell viability): 3277.812
Mouse NFS-60 cells; 71.50039 ng/mL
  F.I. (fluorescence at 595 nm, AlamarBlue, cell viability): 3308.383
Mouse NFS-60 cells; 214.50117 ng/mL
  F.I. (fluorescence at 595 nm, AlamarBlue, cell viability): 3868.075
Human mPB CD34+ cells; 0.30483 ng/mL
  Number of CD45RA-CD41-: 4070
Human mPB CD34+ cells; 0.91449 ng/mL
  Number of CD45RA-CD41-: 3601
Human mPB CD34+ cells; 2.74348 ng/mL
  Number of CD45RA-CD41-: 4303
Human mPB CD34+ cells; 8.23045 ng/mL
  Number of CD45RA-CD41-: 6404
Human mPB CD34+ cells; 24.69136 ng/mL
  Number of CD45RA-CD41-: 9122
Human mPB CD34+ cells; 74.07407 ng/mL
  Number of CD45RA-CD41-: 11200
Human mPB CD34+ cells; 222.22222 ng/mL
  Number of CD45RA-CD41-: 11000
Human mPB CD34+ cells; 666.66667 ng/mL
  Number of CD45RA-CD41-: 11400
Human mPB CD34+ cells; 2000 ng/mL
  Number of CD45RA-CD41-: 11400
Human mPB CD34+ cells; 6000 ng/mL
  Number of CD45RA-CD41-: 13200
[1]; day 0.021
  Percentage (blood level normalized to first time point, 30 min): 100.00%
[1]; day 0.042
  Percentage (blood level normalized to first time point, 30 min): 102.12%
[1]; day 0.083
  Percentage (blood level normalized to first time point, 30 min): 104.03%
[1]; day 0.125
  Percentage (blood level normalized to first time point, 30 min): 101.71%
[1]; day 0.250
  Percentage (blood level normalized to first time point, 30 min): 93.90%
[1]; day 1.000
  Percentage (blood level normalized to first time point, 30 min): 59.26%
[1]; day 2.000
  Percentage (blood level normalized to first time point, 30 min): 56.66%
[1]; day 3.000
  Percentage (blood level normalized to first time point, 30 min): 39.09%
[1]; day 8.000
  Percentage (blood level normalized to first time point, 30 min): 22.21%
[1]; day 10.000
  Percentage (blood level normalized to first time point, 30 min): 21.15%
[1]; day 14.000
  Percentage (blood level normalized to first time point, 30 min): 21.41%
Mice neutrophils
  Percentage of Neutrophil: 25.32
